pIC50: −log10 of the molar value.
Molecular target: Cyclin-dependent kinase 14 (Homo sapiens, UniProt O94921)
Test: In vitro Kinase Assay
Description: Lanthascreen Eu kinase binding assays were conducted for Cdk14/CycY largely as performed in the commercial assay service by Life Technologies, but included a 30 minute pre-incubation step of the kinase with candidate compounds to facilitate covalent bond formation.

Cyclin-dependent kinase 14, sequence (O94921 whole entry): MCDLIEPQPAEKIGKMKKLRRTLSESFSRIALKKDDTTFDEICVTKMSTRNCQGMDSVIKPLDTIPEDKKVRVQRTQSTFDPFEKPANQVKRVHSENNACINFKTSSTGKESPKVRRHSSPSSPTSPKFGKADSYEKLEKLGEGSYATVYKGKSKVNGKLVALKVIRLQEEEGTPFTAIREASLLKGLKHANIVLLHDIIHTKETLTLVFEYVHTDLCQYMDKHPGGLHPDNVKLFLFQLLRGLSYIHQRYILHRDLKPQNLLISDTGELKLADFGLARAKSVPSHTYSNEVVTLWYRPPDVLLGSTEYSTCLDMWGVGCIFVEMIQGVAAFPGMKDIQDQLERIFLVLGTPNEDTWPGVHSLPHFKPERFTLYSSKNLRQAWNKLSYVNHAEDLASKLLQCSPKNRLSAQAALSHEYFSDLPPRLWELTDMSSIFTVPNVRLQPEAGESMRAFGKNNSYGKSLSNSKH

pIC50: 6.97
SMILES: CN(C)C/C=C/C(=O)Nc1cccc(CNC(=O)c2n[nH]cc2NC(=O)c2c(Cl)cccc2Cl)c1 [US12187701, Compound FMF-05-064-2]
